Measurements as given in patent publication US9464113B2, “Anti-heparan sulfate peptides that block herpes simplex virus infection in vivo” (The Board of Trustees of the University of Illinois, priority 2010, dated 2016).
No end group written: not given here.

Tests used:
HSV-1 (KOS) gL86 [1] = test: HSV-1 entry assay in CHO-K1 cells expressing gD receptors (3-OST-3, nectin-1, HVEM); format: cell-based, herpes simplex virus type-1; conditions: CHO-K1 cells expressing one of three gD receptors; dose-dependent
Procedure: (§1) HSV-1 entry was assayed as described in Shukla et al., Cell 99:13-22 (1999). CHO-K1 cells were grown in 6-well plates to subconfluence and then transfected with 2.5 μg of expression plasmids for gD receptors nectin-1 (pBG38), HVEM (pBec10), 3-OST-3 isoform (pDS43), or pCDNA3.1 (empty vector) using LipofectAMINE (Gibco/BRL). At 16 h post-transfection, the cells were replated into 96-well dishes for pre-incubation with peptides at different concentrations for 60 min at room temperature. In parallel, natural target cells (HeLa, CF, and RPE) were also pre-treated with the peptides for the same duration. In all cases, unbound peptides were removed after washing 3× with PBS. Thereafter, cells were infected for 6 h with a recombinant virus, HSV-1 (KOS) gL86, at multiple plaque forming units (PFUs) and β-galactosidase assays were performed using either a soluble substrate o-nitrophenyl-β-D-galactopyranoside (ONPG at 3.0 mg/ml; ImmunoPure, Pierce) or X-gal (Sigma). For the soluble substrate, the enzymatic activity was measured at 410 nm using a micro-plate reader (Spectra Max 190, Molecular Devices, Sunnyvale, Calif.). For the X-gal assay, cells were fixed (2% formaldehyde and 0.2% glutaraldehyde) and permeabilized (2 mM MgCl2, 0.01% deoxycholate, and 0.02% nonidet NP-40 (Sigma)). 1 ml of β-galactosidase reagent (1.0 mg/ml X-gal in ferricyanide buffer) was added to each well and incubated at 37° C. for 90 min before the cells were examined using bright field microscopy under the 20× objectives of the inverted microscope (Zeiss Axiovert 100 M).
Peptide sequences from individual plaques were deduced by determining the nucleotide sequences of the portion of the phage genome that encoded them. The predicted peptide sequences of about 200 plaques were determined and sorted into two groups on the basis of their targets. […] After 6 hr, the cells were washed, permeabilized, and incubated with ONPG substrate (3.0 mg/ml) for quantitation of β-galactosidase activity expressed from the input viral genome. The enzymatic activity was measured at an optical density of 410 nm (OD410). […]

[2] = test system: GFP-expressing HHV-8 (rHHV-8.152); test: HHV-8 infection assay in HCjE cells; format: cell-based, human herpesvirus-8; conditions: for GFP-expression of HHV-8 (RFU): 48 h, fluorescence reader (FIG. 5C); for fluorescence from GFP virus replication (microscopy): fluorescent microscope (FIG. 5D)
Procedure: HCjE cells grown in chamber slides (Labteck) or in a 96 well plate were pre-treated with G1, G2, or control peptides for 60 min at room temperature followed by inoculation with recombinant rHHV-8.152, expressing the green fluorescent protein (GFP). Viera et al., J. Virol. 72:5182-5188 (2000). 48-hr post-infection, GFP-positive cells were visualized under microscope (Zeiss Axioverst 100M). HHV-8 infection was determined as relative fluorescence units (RFU) using GENios Pro plate reader (TECAN) at 480-nm excitation and 520-nm emission frequencies. Five measurements of negative control, positive control, and the test samples were performed. Data were expressed as mean±SD.
The ability to block HHV-8 infection was examined in human conjunctival epithelial (HCjE) cells, a natural target for HHV-8 infection. Human conjunctival (HCjE) cells were pre-incubated with G1, G2 or control peptide (Cp) were infected with HHV-8 virions for 48 h at 37° C. After incubation the cells were washed thoroughly to remove unbound viruses. GFP-expression of HHV-8 was quantitated by determining relative fluorescence units (RFU) using a 96-well fluorescence reader (TECAN). Emission of fluorescence indicates virus infection. […] This was confirmed by examination of individual cells by fluorescence microscopy.
Viral replication in HCjE cells was visualized under fluorescent microscope (Zeiss Axiovert 100) in cells that were pretreated with G1, G2 or Cp, as described above (FIG. 5D). Asterisks indicate significant difference from controls and/or treatments (P<0.05, t test) and error bars represent SD. […] G1 may have some activity but the virus can possibly overcome it easily.

HSV-1 (KOS) gL86 [3] = test: HSV-1 entry into primary human corneal fibroblasts (CF); format: cell-based, herpes simplex virus type-1; conditions: for blocking of HSV-1 entry/infection: human CF, 60 min pre-treatment, 25 pfu/cell, 6 hr
Procedure: as §1
The ability of the G1 and G2 peptides to block HSV-1 entry into natural target cells (HeLa and primary cultures of human CF) was compared. A similar dosage response curve was generated when HeLa (FIG. 2A) or CF (FIG. 2B) were pre-treated with G1 or G2 peptides during HSV-1 entry. […] HeLa cells (FIG. 2A) and primary cultures of human corneal fibroblasts (CF) (FIG. 2B) were tested. Cells in 96-well plates were pre-treated for 60 min with indicated mM concentrations of G1, G2, or Cp peptides. Mock-treated cells (abbreviated as C) served as a control. Pretreated cells were infected with a β galactosidase-expressing recombinant virus HSV-1 (KOS) HSV-1 gL86 (25 pfu/cell) for 6 hr. Viral entry was quantitated as described above in reference to FIG. 1. Confirmation of HSV-1 entry blocking activity of G1, G2, and control (Cp) peptides on a per cell basis was obtained after cells were infected as described above followed by X-gal (1.0 mg/ml) staining (Right panels), which yields an insoluble blue product upon hydrolysis by β-galactosidase expressed from the input viral genomes. […] Microscopy was performed using a 20× objective of Zeiss Axiovert 100.
To better understand the inhibitory potential of G1 and G2 peptides, synthetic short variants (10-mer) were synthesized that lacked the terminal non-positively charged amino acids. In case of G1, N-terminus L and C-terminus H residues were removed. For G2, the N-terminus flanking residues (M and P) were removed. Without being bound by theory, it is believed that 12-mer peptides are too short to adopt substantial secondary or tertiary structures and that the primary structure of those peptides, which includes a defined sequence or groupings of positively charged residues, plays a critical role in mediating inhibition of HSV-1 entry. Synthetic 10-mer versions of G1 and G2 (shown above) were tested for blocking HSV-1(KOS)gL86 entry into cultured CF. After 6 h, the viral entry was measured by ONPG assay as described in FIG. 1.
Alanine (A) scanning mutagenesis was performed to identify specific amino acid residues responsible for each peptide's function, stability, and conformation. O'Nuallain et al., Biochemistry 46:13049-13058 (2007). Twelve synthetic peptides were made whereby each residue of G2 was sequentially replaced with an alanine residue and corresponding changes in the G2 peptide were evaluated for their ability to affect viral entry (FIG. 4B). […]

Row | Sequence | blocking of HSV-1 entry (HSV-1 (KOS) gL86 [1]) | GFP-expression of HHV-8 (RFU) [2] | fluorescence from GFP virus replication (microscopy) [2] | activity normalized against wild-type G2 (higher than 1 = loss of activity) (HSV-1 (KOS) gL86 [3]; alanine scanning, FIG. 4B) | blocking of HSV-1 entry/infection (HSV-1 (KOS) gL86 [3])
1 | MPRRRRIRRRQK [G2, MPRRRRIRRRQK] | able to block HSV-1 entry | relatively low GFP-expression | did not show fluorescence | 1.00 | effective in blocking infection of individual cells
2 | RVCGSIGKEVLG [Cp, reference compound] | did not inhibit HSV-1 entry | – | fluorescence was more easily seen | – | no effect on HSV-1 entry
3 | LRSRTKIIRIRH [G1, LRSRTKIIRIRH] | able to block HSV-1 entry | not found to be statistically significant | fluorescence was more easily seen | – | effective in blocking infection of individual cells
